Assay results reported in US20090170762A1, “Treatment of Diabetes Related Obesity” (UUTech Limited, priority 2005, published 2009).
Ends that are not written are not given here. * marks the point of attachment. Palmitoyl = CCCCCCCCCCCCCCCC(=O)*

What was measured:
human GIP-R = target: T1, human GIP-R (Homo sapiens, UniProt P48546); assay: Cyclic AMP production in GIP-R transfected CHL cells; type: cell-based; conditions: for inhibition of GIP-stimulated cAMP production: in presence of GIP (10^-7 m)
T1 construct: expressed in transfected cells; host or cells: Chinese Hamster Lung (CHL) fibroblast cells, stably transfected
T1 sequence (P48546 22-466): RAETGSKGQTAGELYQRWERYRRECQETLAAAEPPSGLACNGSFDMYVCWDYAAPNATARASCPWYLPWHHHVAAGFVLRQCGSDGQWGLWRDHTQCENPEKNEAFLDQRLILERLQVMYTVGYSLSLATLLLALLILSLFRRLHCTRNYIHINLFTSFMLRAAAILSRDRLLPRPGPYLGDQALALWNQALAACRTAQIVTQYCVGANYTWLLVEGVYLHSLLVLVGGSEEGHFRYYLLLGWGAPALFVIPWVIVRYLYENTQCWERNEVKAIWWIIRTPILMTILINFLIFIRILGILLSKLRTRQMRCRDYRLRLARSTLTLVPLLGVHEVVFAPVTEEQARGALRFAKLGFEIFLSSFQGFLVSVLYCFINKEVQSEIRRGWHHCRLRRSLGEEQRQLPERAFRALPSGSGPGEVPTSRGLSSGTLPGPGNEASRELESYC
Procedure: Tissue Culture. […] (v/v) fetal bovine serum, 1% (v/v) antibiotics (100 U/ml penicillin, 0.1 mg/ml streptomycin) (all from Gibco, Paisley, Strathclyde, Scotland). BRIN-BD11 cells were cultured in RPMI-1640 tissue culture medium containing 10% (v/v) fetal bovine serum, 1% (v/v) antibiotics (100 U/ml penicillin, 0.1 mg/ml streptomycin) and 11.1 mm glucose. The origin and secretory characteristics of these cells have been described in detail previously (McClenaghan, N. H. et al., 1996, Diabetes 45:1132-1140). The cells were maintained in sterile tissue culture flasks (Corning Glass Works, Sunderland, UK) at 37° C. in an atmosphere of 5% CO2 and 95% air using a LEEC incubator (Laboratory Technical Engineering, Nottingham, UK).
Methods. […] The culture medium was removed and cells subsequently washed twice with 2 ml ice-cold HBS buffer (130 mm NaCl, 20 mm HEPES, 0.9 mm NaHPO4, 0.8 mm MgSO4, 5.4 mm KCl, 1.8 mm CaCl2, 5.6 mm glucose and 25 μm phenol red) (pH 7.4). […] The medium was subsequently removed and the cells lysed with […] of lysing solution (5% TCA, 3% SDS, 92% H2O, also containing 0.1 mm unlabelled cAMP and 0.1 mm unlabelled ATP) (Sigma, Poole, Dorset, UK). The plates were then left on a shaker at room temperature for 30 minutes and tritiated cAMP formation determined by column chromatography using Dowex and alumina ion exchange columns (BioRad Life Science Research, Alpha Analytical, Larne, UK) as previously described (Gault, V. A. et al 2002, Biochem. J. 367:913-920).

DPP-IV = DPP-IV (Homo sapiens, UniProt P27487); assay: Degradation of GIP and Glu3-substituted GIP analogs by DPP-IV (HPLC); type: in vitro ADME; conditions: for half-life at 2 μm: DPP-IV enzyme (5 mU) in buffer, pH 7.8, incubation with DPP-IV, unit not given (time points in hrs), read-out: Estimated Half-Life (converted); for Intact Peptide Remaining (%) 0 hrs. / remaining at 2 h, 2 μm / remaining at 4 h, 2 μm / remaining at 8 h, 2 μm: incubation with DPP-IV (5 mU), 37°C; for Intact Peptide Remaining (%) 0 hrs.: pH 7.8, 0 hrs; for remaining at 2 h, 2 μm / remaining at 4 h, 2 μm / remaining at 8 h, 2 μm: isolated DPP-IV enzyme (5 mU); for remaining at 2 h, 2 μm: pH 7.8, 2 hrs, read-out: Intact Peptide Remaining (%) 2 hrs.; for remaining at 4 h, 2 μm: pH 7.8, 4 hrs, read-out: Intact Peptide Remaining (%) 4 hrs.; for remaining at 8 h, 2 μm: pH 7.8, 8 hrs, read-out: Intact Peptide Remaining (%) 8 hrs.
BRIN-BD11 cells = assay: Insulin secretion from BRIN-BD11 cells; type: cell-based; conditions: for Maximal insulin response (% GIP max) / Insulin response in presence of 10^-7 M GIP (% GIP max): BRIN-BD11 cells, 5.6 mm glucose; for Maximal insulin response (% GIP max): 20 min; for Insulin response in presence of 10^-7 M GIP (% GIP max): in presence of 10^-7 M native GIP
Procedure: Tissue Culture. Chinese Hamster Lung (CHL) fibroblast cells stably transfected with the human GIP-R were cultured in DMEM tissue culture medium containing 10%. (v/v) fetal bovine serum, 1% (v/v) antibiotics (100 U/ml penicillin, 0.1 mg/ml streptomycin) (all from Gibco, Paisley, Strathclyde, Scotland). BRIN-BD11 cells were cultured in RPMI-1640 tissue culture medium containing 10% (v/v) fetal bovine serum, 1% (v/v) antibiotics (100 U/ml penicillin, 0.1 mg/ml streptomycin) and 11.1 mm glucose. The origin and secretory characteristics of these cells have been described in detail previously (McClenaghan, N. H. et al., 1996, Diabetes 45:1132-1140). The cells were maintained in sterile tissue culture flasks (Corning Glass Works, Sunderland, UK) at 37° C. in an atmosphere of 5% CO2 and 95% air using a LEEC incubator (Laboratory Technical Engineering, Nottingham, UK).
Methods. Insulin release from BRIN-BD11 cells was determined by use of cell monolayers as described previously (Gault, V. A. et al. 2002, Biochem. J. 367:913-920). In brief, BRIN-BD11 cells were seeded into 24-well plates (Nunc, Roskilde, Denmark) at a density of 1.5×10^5 cells per well and allowed to attach overnight in RPMI-1640 culture medium at 37° C. Acute tests for insulin secretion were preceded by 40 minutes pre-incubation at 37° C. in 1.0 ml Krebs Ringer Bicarbonate Buffer (KRBB, 115 mm NaCl, 4.7 mm KCl, 1.28 mm CaCl2, 1.2 mM MgSO4, 1.2 mm KH2PO4, 25 mM HEPES and 10 mm NaHCO3; pH 7.4 with NaOH) supplemented with 0.1% (w/v) BSA and 1.1 mM glucose. […] After 20 minutes incubation, the buffer was removed and used for measurement of insulin by radioimmunoassay (Flatt, P. R. and Bailey, C. J., 1981, Diabetologia 5:573-577).

ob/ob mice [1] = assay: Acute antihyperglycaemic and insulin releasing activity with glucose and native GIP in ob/ob mice; type: in vivo, mouse; conditions: 25 nmol/kg i.p. with GIP and glucose 18 mmol/kg, vs native GIP
Procedure: (§1) Animals. Obese diabetic (ob/ob) mice derived from the colony maintained at Aston University, UK (Bailey C. J. et al., 1982, Int. J. Obes. 6:11-21) were used at 14-18 weeks of age. Animals were age-matched, divided into groups and housed individually in an air-conditioned room at 22±2° C. with a 12 hour light: 12 hour dark cycle (08:00-20:00 hr). Drinking water and a standard rodent maintenance diet (Trouw Nutrition, Cheshire, UK) were freely available. All animal experiments were carried out in accordance with the UK Animals (Scientific Procedures) Act 1986.
Biochemical analysis. Plasma glucose was assayed by an automated glucose oxidase procedure ([…]) using a Beckman Glucose Analyzer II (Beckman Instruments, Galway, Ireland). Plasma insulin was assayed by radioimmunoassay.
Methods. […] All test solutions were administered in a final volume of 5 ml/kg body weight. Blood samples were collected from the cut tip of the tail vein of conscious mice into chilled fluoride/heparin coated glucose microcentrifuge tubes (Sarstedt, Numbrecht, Germany) immediately prior to injection and at 15, 30 and 60 minutes post injection. Blood samples were immediately centrifuged using a Beckmnan microcentrifuge (Beckman Instruments, High Wycombe, Buckinghamshire, UK) for 30 seconds at 13,000×g. Plasma glucose was assayed using a Beckman Glucose Analyzer n (Beckman Instruments, High Wycombe, Buckinghamshire, UK) (Stevens, J. F., 1971, Clin. Chim. Acta 32:199-201) and plasma insulin was determined by RIA (Flatt, P. R. and Bailey, C. J., 1981, Diabetologia 5:573-577). All animal studies were carried out in accordance with the UK Animals (Scientific Procedures) Act 1986.

ob/ob mice [2] = assay: 14 once-daily injections of GIP analogues in ob/ob mice; type: in vivo, mouse; conditions: 14 days daily, insulin 50 U/kg
Procedure: as §1
Methods. […] Intraperitoneal glucose tolerance (18 mmol/kg body wt) and insulin sensitivity (50 U/kg body wt) tests were performed at the end of the study period. Blood samples taken from the cut tip of the tail vein of conscious mice at the times indicated in the Figures were immediately centrifuged using a Beckman microcentrifuge (Beckman Instruments, UK) for 30 seconds at 13,000×g. The resulting plasma was then aliquoted into fresh Eppendorf tubes and stored at −20° C. prior to glucose and insulin determinations.

Sequence of DPP-IV (P27487 whole entry, species assumed): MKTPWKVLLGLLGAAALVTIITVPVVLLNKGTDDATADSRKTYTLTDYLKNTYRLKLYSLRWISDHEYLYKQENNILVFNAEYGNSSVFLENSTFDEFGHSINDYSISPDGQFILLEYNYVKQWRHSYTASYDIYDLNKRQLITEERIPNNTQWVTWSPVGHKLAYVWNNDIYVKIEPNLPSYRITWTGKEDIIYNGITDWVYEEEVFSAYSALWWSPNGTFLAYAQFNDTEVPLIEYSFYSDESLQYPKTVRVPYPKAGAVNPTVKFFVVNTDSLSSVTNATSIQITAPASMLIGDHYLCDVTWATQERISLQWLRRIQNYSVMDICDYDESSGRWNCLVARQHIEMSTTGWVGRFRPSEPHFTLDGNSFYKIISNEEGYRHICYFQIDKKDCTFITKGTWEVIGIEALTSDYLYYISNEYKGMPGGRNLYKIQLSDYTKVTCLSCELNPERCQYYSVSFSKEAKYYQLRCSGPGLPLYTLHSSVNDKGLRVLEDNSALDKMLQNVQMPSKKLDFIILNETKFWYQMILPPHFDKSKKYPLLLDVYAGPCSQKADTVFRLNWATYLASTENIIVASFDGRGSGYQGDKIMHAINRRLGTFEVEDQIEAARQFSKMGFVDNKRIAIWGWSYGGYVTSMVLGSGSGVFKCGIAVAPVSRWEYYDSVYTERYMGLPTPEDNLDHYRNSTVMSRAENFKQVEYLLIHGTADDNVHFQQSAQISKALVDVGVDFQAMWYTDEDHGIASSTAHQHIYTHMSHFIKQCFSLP

Row | Substance | EC50 (human GIP-R) [nM] | remaining activity at 0.1 µM (human GIP-R; CHL, read-out: cAMP response in presence of 10^-7 M GIP (% GIP max)) [%] | inhibition of GIP-stimulated cAMP production (human GIP-R) | half-life at 2 μm (DPP-IV) [h] | Intact Peptide Remaining (%) 0 hrs. (DPP-IV) [%] | remaining at 2 h, 2 μm (DPP-IV) [%] | remaining at 4 h, 2 μm (DPP-IV) [%] | remaining at 8 h, 2 μm (DPP-IV) [%] | Maximal insulin response (% GIP max) (BRIN-BD11 cells) | Insulin response in presence of 10^-7 M GIP (% GIP max) (BRIN-BD11 cells) | effect on GIP-stimulated insulin secretion (BRIN-BD11 cells; in presence of GIP (10^-7 m)) | plasma glucose and insulin profiles when administered together with native GIP (ob/ob mice [1]) | cAMP response in presence of 10^-7 M GIP (% GIP max) (human GIP-R; in presence of 10^-7 M native GIP) | hypoglycemic action of insulin (ob/ob mice [2])
1 | YAYGTFISDYSIAMDKIHQQDFVNWLLAQKGKKNDWKHNITQ [(Tyr^3)GIP] | 1.5 | 76 ± 4 | did not significantly inhibit | 1.5 | 100 | 34.1 ± 4.1 | 6.3 ± 3.1 | 0 | 75 ± 4 | 93 ± 2 | did not significantly affect | significantly inhibited the action of GIP |  | 
2 | YAPGTFISDYSIAMDK(Palmitoyl)IHQQDFVNWLLAQKGKKNDWKHNITQ [(Pro^3)LysPAL^16GIP] | 870 |  | similarly inhibited | > 8 | 100 | 100 | 100 | 100 | 48 ± 4 | 61 ± 3 |  |  | 63 ± 5 | significantly augmented
